From patent publication US8679842B2, “Method for increasing the pool of Ngn3+ endocrine progenitor cells and pancreatic endocrine cell mass” (Assistance Publique—Hopitaux de Paris, priority 2009, dated 2014)
Entries after “also recorded” stand apart in the source; their conditions may differ.

Tests used:
[1] = tested on: E13.5 Rat embryonic pancreases; test: Immunohistochemistry and quantification of stained surface area / cell number in cultured embryonic pancreases; assay type: cell-based
Excerpt: (§1) Pregnant Wistar rats were purchased from the Janvier Breeding centre (CERJ, LeGenet, France). The first day postcoitum was taken as embryonic day (E) 0.5. Pregnant rats were killed with CO2 asphyxiation according to guidelines issued by the French Animal Care Committee. Dorsal pancreatic buds from E13.5 rat embryos were dissected as described previously (Miralles et al., 1998). Briefly, the stomach, pancreas and a small portion of the intestine were dissected together, and then the pancreas primordium was isolated.
(§2) Dorsal pancreatic rudiments were cultured on 0.45 μm filters (Millipore) at the air-medium interface in a 35 mm sterile Petri dishes containing 2 ml RPMI-1640 medium (Invitrogen) supplemented with 100 U/ml penicillin, 100 μg/ml streptomycin, 10 mmol/L HEPES, 2 mmol/L L-glutamine, 1× non-essential aminoacids (Invitrogen) and 10% heat-inactivated fetal calf serum (HyClone, Logan, Utah, USA). Glibenclamide (MP Biomedical) and nifedipine (Sigma), used at the indicated concentrations, were first dissolved as concentrated solutions in dimethylsulfoxide DMSO (Sigma), the final concentration of DMSO in the culture medium was less than 0.5% (vol/vol). The culture medium was changed every day. Glibenclamide and nifedipine were added to the media daily. The cultures were incubated at 37° C. in a humidified atmosphere composed of 95% air and 5% CO2. At the end of the culture period, the pancreases were photographed, and fixed as described below or harvested for RNA extraction
Immunochemistry—The pancreatic rudiments were fixed in 10% formalin, pre-embedded in agarose gel (4% of type VII low-gelling-temperature agarose (Sigma) in H2O) and embedded in paraffin. Immunohistochemistry was performed on 4-μm paraffin sections as previously described (Duvillie et al., 2006). The primary antibodies were mouse anti insulin (1/2000; Sigma), rabbit anti-glucagon (1/1000; Diasorin), rabbit anti-amylase (1/300; Sigma), rabbit anti-carboxypeptidase A (1/600; Biogenesis, Kidlington, Oxford, UK), rabbit anti-PDX1 (1/1000) (Duvillie et al., 2003) mouse anti-BrdUrd5 (1/2; Amersham Biosciences, Buckingham, UK), rabbit anti-PCK1/3, rabbit anti-Ngn3 (1/100, Guillemain et al., 2007), rabbit anti-KIR6.2 and anti-SUR1 (1/100, Santa Cruz). The fluorescent secondary antibodies were fluorescein anti-rabbit antibody (1/200; Jackson Immunoresearch, Baltimore, Md., USA), fluorescein goat anti-rabbit Alexa Fluor 488 (1/400; Invitrogen) and Texas red anti-mouse antibody (1/200; Jackson). Nuclei were stained in blue with Hoechst 33342 (0.3 μg/ml; Invitrogen). Ngn3 detection was performed as previously described (Guillemain et al., 2007) using the Vectastain elite ABC kit (Vector laboratories).
(§3) Quantification—To quantify the surface area of insulin, glucagon, PCSK1/3, CPA and amylase-expressing cells, all sections of each pancreatic rudiment were digitized. Alternate sections were examined to avoid counting the same cell twice. The surface of insulin, glucagon, PCSK1/3, CPA, amylase, and Hoechst stainings were quantified using Iplab (Scanalytics). The stained areas were summed to obtain the total surface area per rudiment in mm^2. To measure proliferation of the early progenitors expressing PDX1, we counted the frequency of BrdU positive progenitors expressing PDX1 among 3000 early progenitors expressing PDX1 per rudiment. To quantify the absolute number of NGN3-expressing cells, pancreatic rudiments were sectioned and all sections were stained with an anti-NGN3 antibody. Positive cells were counted on all sections of each pancreatic rudiment. A minimum of three rudiments was analyzed per condition.

[2] = tested on: E13.5 Rat embryonic pancreases; test: Real-time PCR of gene expression in cultured embryonic pancreases; assay type: cell-based
Excerpt: as §1, §2
Total RNA was isolated from pools of at least three pancreases using the Qiagen RNeasy Microkit (Qiagen, Courtaboeuf, France) and reverse transcribed using Superscript reagents (Invitrogen). Real-time PCR was performed with the 7300 Fast real-time PCR system (Applied Bio system) using either Taqman universal PCR universal PCR master mix or SYBR green PCR master mix (Applied Biosystem) with primers and labelled probes specific for each gene. Peptidylpropyl isomerase A/Cyclophilin A was used as endogenous control and E16.5 pancreas cDNA as calibrator sample. The data were analyzed by comparative cycle threshold method (Livak et al., 1997) and presented as the fold change in gene expression. At least three pools of explants were analysed by condition.

[3] = tested on: early progenitors expressing PDX1; test: BrdU incorporation: proliferation of early PDX1 progenitors in cultured embryonic pancreases; assay type: cell-based, rat; conditions: 100 μM; 24 h culture, BrdU during last hour (FIG. 3D); control 31.24%±2.8%
Description: as §2, with “Glibenclamide and nifedipine were added to the media daily. The cultures were incubated at 37° C. in a humidified atmosphere composed of 95% air and 5% CO2. At the end of the culture period, the pancreases were photographed, and fixed as described below or harvested for RNA extraction” left out
as §3, with “Alternate sections were examined to avoid counting the same cell twice.” left out, “The stained areas were summed to obtain the total surface area per rudiment in mm^2.” left out, “A minimum of three rudiments was analyzed per condition.” left out

[4] = tested on: E13.5 Rat embryonic pancreases; test: E13.5 rat embryonic pancreas organ culture: growth, morphology and toxicity (Hoechst staining); assay type: cell-based
Excerpt: as §1, §2, §3
Using the in vitro model as described above (E13.5 Rat embryonic pancreases cultured at the air/medium interface on a floating filter), we examined the effects of increased concentrations of the sulphonylurea glibenclamide (an inhibitor of KATP channels) on pancreas development. […] Under both conditions, the epithelium grew rapidly, spread into the mesenchyme, and developed lobules. There is no difference in apoptosis in pancreases cultured 7 days without or with 10 and 100 μM glibenclamide as shown by the Hoechst staining of the nuclei (FIG. 1B).

COc1ccc(Cl)cc1C(=O)NCCc1ccc(S(=O)(=O)NC(=O)NC2CCCCC2)cc1 [glibenclamide]
number of NGN3+ cells vs control ([1]; 100 μM, 5 days of culture (FIG. 3B, 3C)): threefold higher; also recorded: increased number of NGN3 positive nuclei | surface area occupied by PCSK1/3 staining in PDX-1+ cells vs control ([1]; 100 μM, 7 days (FIG. 2D)): similar | increase of the number of glucagon-expressing cells ([1]; 100 μM, 7 days (FIG. 2E)): 3.5 fold | decrease of surface area occupied by the insulin-cell population ([1]; 7 days of culture, vs control, data not shown): 70% | insulin-positive cells (insulin-staining area) ([1]; Glib 5D pancreases, data not shown): significant increase | insulin-containing cells ([1]; Glib pancreases: glibenclamide during the 14-day culture period, data not shown): less | insulin-expressing cells ([1]; Glib-5D: 100 μM only during first 5 days, D9, D11 or D14 (FIG. 4A)): large number | Pou3F4/Brn4 mRNA level ([2]; 100 μM, D7 (FIG. 2F)): significant increase | Ngn3 expression (mRNA) increase vs control ([2]; 100 μM, after 5 days of culture, p<0.001 (FIG. 3A)): sevenfold | Ngn3 mRNA level vs control ([2]; 100 μM, after the D5 peak (D7), p<0.001 (FIG. 3A)): dramatically higher | insulin expression (mRNA) ([2]; 100 μM, as early as D3 (FIG. 2A)): strongly reduced | Ngn3 expression (mRNA) vs control ([2]; 100 μM, day 1 and 3 (FIG. 3A)): similar | ZnT-8 expression (mRNA) ([2]; 100 μM, over the 7 days of culture (FIG. 2B)): did not affect | MafA expression (mRNA) ([2]; 100 μM, over the 7 days of culture (FIG. 2C)): did not affect | NeuroD1 mRNA level vs control ([2]; D5, data not shown): significantly increased | NeuroD1 mRNA level vs control ([2]; D7, data not shown): reminded enhanced | ZnT-8 expression vs control ([2]; Glib 5D, after 9, 11 and 14 days, p<0.01 (FIG. 4C)): dramatic increase | MafA expression vs control ([2]; Glib 5D, after 9, 11 and 14 days, p<0.01 (FIG. 4D)): dramatic increase | insulin mRNA level vs control ([2]; Glib-5D, D7 (FIG. 4B)): identical | insulin mRNA level increase vs control ([2]; Glib-5D, D9 (FIG. 4B)): threefold | insulin mRNA level increase vs control ([2]; Glib-5D, D11 (FIG. 4B)): twofold | insulin mRNA level increase vs control ([2]; Glib-5D, D14 (FIG. 4B)): threefold | ZnT-8 expression vs control ([2]; Glib-5D, after 7 days of culture (FIG. 4C)): similar | MafA expression vs control ([2]; Glib-5D, after 7 days of culture (FIG. 4D)): similar | NeuroD1 mRNA levels vs control ([2]; after 1 and 3 days of culture, data not shown): similar | increase in somatostatin expression ([2]; after 7 days of culture, data not shown): two-fold | percentage of PDX-1+ cells that incorporate BrdU [3]: 32.60%±4.2% | pancreatic growth vs control ([4]; 10 nM, 100 nM, 1, 10 or 100 μM, 7 days of culture (FIG. 1A)): similar | branching of the epithelium ([4]; 100 μM (FIG. 1A)): more branched | apoptosis (Hoechst staining of the nuclei) vs control ([4]; 10 and 100 μM, 7 days (FIG. 1B)): no difference | toxicity by overall size of pancreases (Hoechst surface area) ([4]; 10 or 100 μM, 7 days (FIG. 1C)): lack of glibenclamide toxicity | pycnotic nuclei (Hoechst staining) ([4]; 7 days, indicated concentrations (FIG. 1B)): lack of pycnotic nuclei
